Read-outs that look alike come from different tables or passages of the source.

Data set [1] concerns Heterodera schachtii second-stage juveniles (J2). Put plainly: Motility on WMicrotracker ONE. Type of data set: in vivo. The method, then: H. schachtii was maintained on mustard (Sinapsis alba cv. Albatros) roots grown in vitro on modified KNOP medium according to the previously published protocols. ,
(§1) The effect of compounds on motility of H. contortus, D. destructor, and H. schachtii was evaluated using the WMicrotracker ONE platform according to previously published protocols. ,
(§2) The instrument evaluates the activity of small animals by counting how many times infrared light microbeams passing through the wells of a microtiter plate are interrupted. In age-unsynchronized populations of D. destructor, we observed reduced motility of worm populations treated with the halogenated derivatives i-19, i-20, and i-21 (Figures A, S2.1A, S2.2A and Table S2.1). […] The decreases in mean activity counts after 72 h of treatment at 100 μM were 85% and 97%, respectively.

Data set [2] concerns age unsynchronized Ditylenchus destructor. Put plainly: Motility on WMicrotracker ONE. In kind it is in vivo. The method, then: Populations of D. destructor, kindly provided by Central Institute for Supervising and Testing in Agriculture, the Ministry of Agriculture of the Czech Republic, were maintained according to the protocol previously described here.
as §1, §2

The next data set has as its system Skin fibroblasts (BJ). Put plainly: Resazurin assay, 3-day treatment. Type of data set: cell-based, human. The note with it: BJ. The protocol: Skin fibroblasts (BJ) were obtained from the American Type Culture Collection (ATCC, Manassas, VA), while human keratinocytes (HaCaT) were sourced from the German Cancer Research Center in Heidelberg, Germany. Cells were cultured in a standard DMEM medium from Sigma-Aldrich, supplemented with 10% fetal bovine serum, 2 mM glutamine, 100 U/mL penicillin, and 100 μg/mL streptomycin. Cultures were maintained under standard conditions (37 °C, 5% CO2, humidified atmosphere) and subcultured two to three times per week. We assessed the effect of 3-day compound treatments on cell viability using a resazurin reduction assay measuring mitochondrial activity. Approximately 5,000 cells in 80 μL of culture medium were seeded into the wells of a 96-well plate. Twenty-four hours later, 20 μL of 5-fold concentrated test compound solutions was added and tested across three concentrations prepared through 2-fold serial dilutions. The highest final concentration was 40 μM. After 72 h, we added an 11-fold concentrated resazurin solution to the wells, achieving a final concentration of 0.0125 μM. Fluorescence (ex = 570 nm, em = 610 nm) was measured after 3 h of incubation. […]
(In general: Alamar Blue is a resazurin reagent that responds to reducing activity.)

Data set [3] relates to human keratinocytes (HaCaT). The data set can be described thus: Resazurin assay, 3-day treatment. In kind it is cell-based. The protocol: Skin fibroblasts (BJ) were obtained from the American Type Culture Collection (ATCC, Manassas, VA), while human keratinocytes (HaCaT) were sourced from the German Cancer Research Center in Heidelberg, Germany. Cells were cultured in a standard DMEM medium from Sigma-Aldrich, supplemented with 10% fetal bovine serum, 2 mM glutamine, 100 U/mL penicillin, and 100 μg/mL streptomycin. Cultures were maintained under standard conditions (37 °C, 5% CO2, humidified atmosphere) and subcultured two to three times per week. We assessed the effect of 3-day compound treatments on cell viability using a resazurin reduction assay measuring mitochondrial activity. Approximately 5,000 cells in 80 μL of culture medium were seeded into the wells of a 96-well plate. Twenty-four hours later, 20 μL of 5-fold concentrated test compound solutions was added and tested across three concentrations prepared through 2-fold serial dilutions. The highest final concentration was 40 μM. After 72 h, we added an 11-fold concentrated resazurin solution to the wells, achieving a final concentration of 0.0125 μM. Fluorescence (ex = 570 nm, em = 610 nm) was measured after 3 h of incubation.
The disubstituted derivatives i-25 and i-27 were the most toxic in the set, causing around a 50% decrease in viability of HaCaT cells at 40 μM.

The subject of another data set is C. elegans N2 wild-type. The data set can be described thus: Chitinase assay (reproductive capacity). In kind it is in vivo, Caenorhabditis elegans. The method, then: (§3) The effect of compounds on C. elegans was evaluated using the Chitinase assay as we described previously.
After exposing L1 larvae to the compounds for 4 days, we observed the populations under a microscope and measured the Chitinase activity. The larvae produce the enzyme while hatching, and its activity is indicative of the reproductive capacity of the worms. Populations that fail to reproduce due to acute or reproductive toxicity or developmental abnormalities are detected.

The subject of data set [4] is Arabidopsis thaliana Col-0. Put plainly: Germination rate and phytotoxicity. The following applies: for average fraction of germinated seeds: 5 DPS; for main root length / plant weight: 10 DPS. Type of data set: in vivo. The protocol:
Wild-type A. thaliana (Col-0 ecotype) seeds were sterilized with 70% EtOH with 0.1% Tween-20 solution (2 × 1 mL) for 10 min, rinsed with 96% EtOH (1 × 1 mL) for 10 min, and kept in the fridge (4 °C in the dark). Seeds were sown on a sterile 1/2 MS medium supplemented with 0.3% DMSO as a mock and test compounds at 5, 10, 50, and 100 μM concentrations in 0.3% DMSO. Plates were kept in long-day light conditions (22 °C/20 °C, 16 h light/8 h dark, 100 μmol m^–2 s^–1). After 5 days, the germination rate was evaluated. After an additional 5 days, primary root growth was measured with ImageJ software (https://imagej.nih.gov/ij/), and seedlings were weighted.

For data set [5], the system named is C. elegans CB3474 ben-1(e1880) III. The data set can be described thus: Chitinase assay (reproductive capacity). Type of data set: in vivo. The note with it: Caenorhabditis elegans; mebendazole-resistant strain. The method, then: (§4) C. elegans strains used in this study were N2 (wild-type), levamisole-resistant strains ZZ15 (lev-8(x15) X) and […] (lev-1(e211) IV), ivermectin-resistant strain DA1316 (avr-14(ad1305) I; avr-15(vu227) glc-1(pk54) V), mebendazole-resistant strain […] (ben-1(e1880) III), and three strains with mutations in succinate dehydrogenase, RP2699, RP2700, and RP2702. The worms were cultivated on Nematode Growth Medium agar plates seeded with Escherichia coli OP50 in 20 °C according to the standard cultivation protocols. Strains RP2699, RP2700, and RP2702 were generated by Prof. Peter Roy’s group. All other strains and bacteria were purchased from the Caenorhabditis Genetics Center (CGC, Minneapolis, MN).
as §3
(§5) Lastly, strain DA1316 has mutations in three genes encoding subunits of the glutamate-gated chloride channel and is highly resistant to avermectins.

Data set [6] deals with C. elegans CB211 lev-1(e211) IV. The data set can be described thus: Chitinase assay (reproductive capacity). Type of data set: in vivo. The following applies: Caenorhabditis elegans; levamisole-resistant strain. The protocol: as §4, §3, §5
The subject of data set [7] is C. elegans DA1316 avr-14(ad1305) I; avr-15(vu227) glc-1(pk54) V. Put plainly: Chitinase assay (reproductive capacity). In kind it is in vivo. The note with it: Caenorhabditis elegans; ivermectin-resistant strain. The method, then: as §4, §3, §5
For data set [8], the system named is C. elegans ZZ15 lev-8(x15) X. The data set can be described thus: Chitinase assay (reproductive capacity). In kind it is in vivo. The note with it: Caenorhabditis elegans; levamisole-resistant strain. The method, then: as §4, §3, §5
In data set [9] the test system is C. elegans complex II mutant RP2700. The data set can be described thus: Scoring of developmental rates, L1 exposed 5 days. The following applies: 1 µM (control). In kind it is in vivo, Caenorhabditis elegans. The source says:
(§6) Dead or mostly immobile worms, arrested at the L1 stage, received a score of 1. Populations with severely delayed development were scored as 2. More developmentally advanced, but still obviously delayed worms were given the score of 3. Adult worms that produce a noticeably lower number of progeny received a score of 4. Healthy worms that reproduce normally (i.e., hundreds of eggs and larvae are present) were scored as 5 (see Figure C for representative images). In a typical, correctly prepared experiment, vehicle-treated populations should receive a score of 5, while worms treated with ivermectin (positive control) should receive a score of 1. […]

The subject of data set [10] is C. elegans complex II mutant RP2702. Put plainly: Scoring of developmental rates, L1 exposed 5 days. Type of data set: in vivo, Caenorhabditis elegans. The following applies: 1 µM (control).
Source text: as §6

In data set [11] the test system is C. elegans complex II mutant RP2699. The data set can be described thus: Scoring of developmental rates, L1 exposed 5 days. In kind it is in vivo, Caenorhabditis elegans. The note with it: 1 µM (control).
Source text: as §6

A further data set relates to C. elegans N2. The data set can be described thus: Scoring of developmental rates, L1 exposed 5 days. In kind it is in vivo, Caenorhabditis elegans. Set-up: key: 1 = dead/arrested at L1 … 5 = healthy, normal reproduction. The note with it: 1 µM (control).
Source text: as §6

The mark [12] stands for this setting: 10 mM group, initial (prior to the treatment).
The mark [13] stands for this setting: 10 µM group, initial (prior to the treatment).
Where [14] appears, read: 50 µM group, initial (prior to the treatment).
Where [15] appears, read: 100 µM group, initial (prior to the treatment).

With `[N-]=[N+]=[N-].[Na+]` [NaN3, reference compound], the average activity counts in data set [1] (setting [12]) amounted to 182; in [1] (10 mM, 48 h), 2; in data set [1] (10 mM, 72 h) it was 2; in data set [2] (setting [12]), 223; in data set [2] (10 mM, 48 h), 7; in data set [2] (10 mM, 72 h) it was 2.

In the case of `Oc1cccc(-c2ccc3[nH]ccc3c2)c1` [i-3], the “Average viability (signal intensity relative to control)” value is recorded as 1 ± 0.01 in the data set with Skin fibroblasts (BJ) (10 µM); 0.97 ± 0 in the data set with Skin fibroblasts (BJ) (20 µM); 0.89 ± 0 in the data set on Skin fibroblasts (BJ) (40 µM); 1.02 ± 0.06 in [3] (10 µM); 1 ± 0.06 in data set [3] (20 µM); 0.93 ± 0.06 in data set [3] (40 µM).

Broadly, the IC50 is the concentration that gives 50% inhibition. Take `COc1ccc(-c2ccc3[nH]ccc3c2)cc1` [i-7]: in the data set on C. elegans N2 wild-type (Caenorhabditis elegans), half-maximal inhibition (IC50) required 15.8 ± 1.78 µM.

Turning to `CCOc1cccc(-c2ccc3[nH]ccc3c2)c1` [i-9], the “average fraction of germinated seeds” value in [4] (5 µM) amounted to 0.96; in [4] (10 µM) it was 0.95; in [4] (50 µM) it was 0.96. The main root length in [4] (5 µM) came to 40.21 mm; in [4] (10 µM), 41.46 mm; in data set [4] (50 µM), 35.05 mm. The plant weight in [4] (5 µM) is given as 33.97 mg; in [4] (10 µM), 35.69 mg; in data set [4] (50 µM), 31.4 mg. In addition, the average activity counts in data set [1] (setting [13]) was 167; in [1] (10 µM, 48 h), 161; in data set [1] (10 µM, 72 h) it was 159; in data set [1] (setting [14]), 201; in data set [1] (50 µM, 48 h), 207; in data set [1] (50 µM, 72 h), 188. Further, the average activity counts amounted to 193 in [1] (setting [15]); 202 in data set [1] (100 µM, 48 h); 171 in data set [1] (100 µM, 72 h); 199 in data set [2] (setting [13]); 183 in [2] (10 µM, 48 h); 205 in data set [2] (10 µM, 72 h). The average activity counts is reported as 200 in [2] (setting [14]); 176 in [2] (50 µM, 48 h); 212 in data set [2] (50 µM, 72 h); 228 in data set [2] (setting [15]); 171 in data set [2] (100 µM, 48 h); 181 in data set [2] (100 µM, 72 h). In addition, the “Average viability (signal intensity relative to control)” value came to 0.92 ± 0.03 in the data set on Skin fibroblasts (BJ) (10 µM); 0.97 ± 0.04 with Skin fibroblasts (BJ) (20 µM); 0.94 ± 0.03 in the data set on Skin fibroblasts (BJ) (40 µM); 0.97 ± 0.04 in data set [3] (10 µM); 1.01 ± 0.05 in data set [3] (20 µM); 0.99 ± 0.02 in data set [3] (40 µM). Also, the concentration for half-maximal inhibition (IC50) in the data set with C. elegans N2 wild-type is 9.76 ± 0.93 µM; in the data set on C. elegans N2 wild-type (Caenorhabditis elegans), less than 10 µM; in data set [5], 10.2 ± 0.5 µM; in data set [6], 9.65 ± 1.82 µM; in data set [7], 9.34 ± 2.01 µM; in data set [8] it was 9.71 ± 1.34 µM.

Turning to `CC(C)Oc1ccc(-c2ccc3[nH]ccc3c2)cc1` [i-16], the half-maximal inhibitory concentration (IC50) in the data set on C. elegans N2 wild-type (Caenorhabditis elegans) was 15.2 ± 0.89 µM.

Consider `Oc1cc(-c2ccc3[nH]ccc3c2)ccc1Cl` [i-24], for which, in the data set on C. elegans N2 wild-type (Caenorhabditis elegans), the half-maximal inhibitory concentration (IC50) is 25 to 50 µM.

For the molecule `CC[C@H](C)[C@H]1O[C@]2(CC[C@@H]1C)C[C@@H]1C[C@@H](C/C=C(\C)[C@@H](O[C@H]3C[C@H](OC)[C@@H](O[C@H]4C[C@H](OC)[C@@H](O)[C@H](C)O4)[C@H](C)O3)[C@@H](C)/C=C/C=C3\CO[C@@H]4[C@H](O)C(C)=C[C@@H](C(=O)O1)[C@]34O)O2` [ivermectin, reference compound], the “mean score (1-5)” value in [9] is 1; in data set [10] it was 1; in data set [11] it was 1.333; in the data set on C. elegans N2, 1.

(Values after article PMC12766724, “Synthesis, Anthelmintic Activity, and Mechanism of Action of 5‑Aryl‑1H‑indoles” (Journal of Agricultural and Food Chemistry, 2025).)
